Where a name gives a salt, the structure may show the parent alone.
Molecular target: SARS-CoV-2 Mac1 (Severe acute respiratory syndrome coronavirus 2, UniProt P0DTD1)
Test: biochemical
Settings: for inhibition at 100 µM: read-out: %inhibition; for %inhibition: 100 µM, inhibitor

| Compound | inhibition at 100 µM [%] | %inhibition [%] |
| --- | --- | --- |
| CN1CCC[C@@H]1Cc1c[nH]c2ccc(CCS(=O)(=O)c3ccccc3)cc12 [Eletriptan HBr] | 0 | – |
| CS(=O)(=O)Nc1ccc([N+](=O)[O-])cc1Oc1ccccc1 [Nimesulide] | 0 | – |
| CS(=O)(=O)c1ccc([C@@H](O)[C@@H](CO)NC(=O)C(Cl)Cl)cc1 [Thiamphenicol] | 13.4 | – |
| CC(C)(C(=O)c1cccnc1)c1cccnc1 [Metyrapone] | 5.33 | – |
| CNC(=O)[C@H](Cc1ccccc1)NC(=O)[C@H](CC(C)C)[C@H](CSc1cccs1)C(=O)NO [Batimastat (BB-94)] | 0 | – |
| CC(=O)Nc1cccc(-n2c(=O)n(C3CC3)c(=O)c3c(Nc4ccc(I)cc4F)n(C)c(=O)c(C)c32)c1 [Trametinib (GSK1120212)] | 3.49 | – |
| COc1ccccc1OCCNCC(O)COc1cccc2[nH]c3ccccc3c12 (centres unmarked) [Carvedilol Phosphate] | – | 0 |
| NC(=O)CCC(N)C(=O)O (racemic) [DL-Glutamine] | 0 | – |
| CC(=O)/N=c1/sc(S(N)(=O)=O)nn1C [Methazolamide] | 0 | – |
| CN(CCOc1ccc(CC2SC(=O)NC2=O)cc1)c1ccccn1 (centres unmarked) [Rosiglitazone] | – | 18.44 |
| Cc1ccccc1OCC(O)CO (centres unmarked) [Mephenesin] | 7.81 | – |
| C[C@@H](NCCc1ccc(O)cc1)[C@@H](O)c1ccc(O)cc1 (racemic) [Ritodrine HCl] | 33.2 | – |
| COc1ccc2c(c1)c(CC(=O)OCC(=O)O)c(C)n2C(=O)c1ccc(Cl)cc1 [Acemetacin] | 8.64 | – |
| C[C@@H](Oc1cc(-c2cnn(C3CCNCC3)c2)cnc1N)c1c(Cl)ccc(F)c1Cl [Crizotinib (PF-02341066)] | 6.7 | – |
| CCn1c(=O)c2c(nc(/C=C/c3ccc(OC)c(OC)c3)n2C)n(CC)c1=O [Istradefylline] | 28.9 | – |
| Nc1ccc(O)c(C(=O)O)c1 [Mesalamine] | 0 | – |
| Cc1c(O)c(=O)ccn1C [Deferiprone] | 0 | – |
| Nc1nc2[nH]cc(CCc3ccc(C(=O)N[C@@H](CCC(=O)O)C(=O)O)cc3)c2c(=O)[nH]1 [Pemetrexed Disodium Hydrate] | 6.24 | – |
| NC(=O)[C@@H]1CCCN1C(=O)[C@H](Cc1c[nH]cn1)NC(=O)[C@@H]1CCC(=O)N1 [Protirelin] | 0 | – |
| N#Cc1ccc(Oc2ccc3c(c2)COB3O)cc1 [Crisaborole (AN2728)] | 10 | – |
| CC1=NN(c2ccc(C)c(C)c2)C(=O)/C1=N\Nc1cccc(-c2cccc(C(=O)O)c2)c1O [Eltrombopag] | – | 0 |
| CCOc1ccc(Cc2cc([C@]34OC[C@](CO)(O3)[C@@H](O)[C@H](O)[C@H]4O)ccc2Cl)cc1 [Ertugliflozin] | 26.2 | – |
| Cc1ccnc(NS(=O)(=O)c2ccc(N)cc2)n1 [Sulfamerazine] | 0 | – |
| CCCCCCc1ccc(O)cc1O [Hexylresorcinol] | 0 | – |
| CC(C)NCC(O)c1ccccc1Cl (centres unmarked) [Clorprenaline HCl] | 7.59 | – |
| NC(=O)N1CCC(CC(=O)N2CCC([C@H]3c4ncc(Br)cc4CCc4cc(Cl)cc(Br)c43)CC2)CC1 [Lonafarnib] | 29.6 | – |

| Compound | inhibition at 100 µM [%] | %inhibition [%] |
| --- | --- | --- |
| Cc1cn([C@H]2O[C@@H](CO)[C@H](O)[C@H]2F)c(=O)[nH]c1=O [Clevudine] | 18.3 | – |
| C#CCN(C)Cc1ccccc1 [Pargyline hydrochloride] | 0 | – |
| CN1C(=O)CCS(=O)(=O)C1c1ccc(Cl)cc1 (centres unmarked) [Chlormezanone] | 20.4 | – |
| Cc1nc(C(=O)NCC(=O)O)c(O)c2ccc(Oc3ccccc3)cc12 [Roxadustat (FG-4592)] | 14.8 | – |
| C[C@H]1C[C@@H]2[C@H]([C@@H](O)C[C@@]3(C)[C@H]2CC[C@]3(O)C(=O)CO)[C@@]2(C)C=CC(=O)C=C12 [Methylprednisolone] | 39.6 | – |
| COc1ccccc1N1CCN(CC(O)COc2cccc3ccccc23)CC1 (centres unmarked) [Naftopidil] | – | 1.252 |
| OC[C@H]1O[C@@H](O[C@@H]2[C@@H](CO)OC(O)(CO)[C@H]2O)[C@H](O)[C@@H](O)[C@H]1O (mixture of isomers) [Lactulose] | 5.37 | – |
| C[C@H](N[C@@H](CCc1ccccc1)C(=O)O)C(=O)N1CCC[C@H]1C(=O)O [Enalaprilat Dihydrate] | 10.6 | – |
| Cc1cn(-c2cc(NC(=O)c3ccc(C)c(Nc4nccc(-c5cnccn5)n4)c3)cc(C(F)(F)F)c2)cn1 [Radotinib] | 1.77 | – |
| Cc1ccc(C(=O)Nc2ccc(CN3CCN(C)CC3)c(C(F)(F)F)c2)cc1C#Cc1cnc2cccnn12 [Ponatinib (AP24534)] | 5.09 | – |
| Cn1cc(CNCC2CCN(c3ncc(C(=O)NO)cn3)CC2)c2ccccc21 [Quisinostat (JNJ-26481585) 2HCl] | 0 | – |
| N#Cc1ccc2[nH]cc(CCCCN3CCN(c4ccc5oc(C(N)=O)cc5c4)CC3)c2c1 [Vilazodone HCl] | 9.5 | – |
| CN1CC(=O)N2[C@H](c3ccc4c(c3)OCO4)c3[nH]c4ccccc4c3C[C@@H]2C1=O [Tadalafil] | 20.7 | – |
| CCCOC(C(=O)OC1CCN(C)CC1)(c1ccccc1)c1ccccc1 [Propiverine hydrochloride] | 21.7 | – |
| O=S(=O)(O)CCS [Mesna] | 24.6 | – |
| O=C1Cc2cc(CCN3CCN(c4nsc5ccccc45)CC3)c(Cl)cc2N1 [Ziprasidone HCl] | 0 | – |
| Cn1c(=O)cc(N2CCC[C@@H](N)C2)n(Cc2cc(F)ccc2C#N)c1=O [Trelagliptin succinate] | – | 24.59 |
| C[C@](N)(Cc1ccc(O)c(O)c1)C(=O)O [Methyldopa] | 8.62 | – |
| O=c1c(-c2ccc(O)cc2)coc2cc(O)cc(O)c12 [Genistein] | 1.56 | – |
| CN(C)CCCN1c2ccccc2CCc2ccccc21 [Imipramine HCl] | 2.2 | – |
| Oc1ccc(OCc2ccccc2)cc1 [Monobenzone] | 0 | – |
| CC(=O)Nc1c(I)c(NC(C)=O)c(I)c(C(=O)O)c1I [Diatrizoate sodium] | 7.54 | – |
| CN1CCCCC1CCN1c2ccccc2Sc2ccc([S+](C)[O-])cc21 (centres unmarked) [Mesoridazine Besylate] | 6.43 | – |
| O=C(O)CSc1nnc(Br)n1-c1ccc(C2CC2)c2ccccc12 [Lesinurad] | 2.49 | – |
| COc1nccnc1NS(=O)(=O)c1ccc(N)cc1 [Sulfalene(SMPZ)] | 5.42 | – |
| O=C(OCc1ccccc1)c1ccccc1 [Benzyl benzoate] | 0 | – |

| Compound | inhibition at 100 µM [%] | %inhibition [%] |
| --- | --- | --- |
| CC1(COc2ccc3c(c2)ncn3-c2ccc3cccc(N4CCC(N)CC4)c3n2)COC1 [Crenolanib (CP-868596)] | 0 | – |
| C=CC[N+]1([C@H]2C[C@H]3[C@@H]4CC[C@H]5C[C@H](O)[C@@H](N6CCOCC6)C[C@]5(C)[C@H]4CC[C@]3(C)[C@H]2OC(C)=O)CCCC1 [Rocuronium Bromide] | 0 | – |
| CC(C)OC(=O)CCC/C=C\C[C@@H]1[C@@H](/C=C/[C@@H](O)COc2cccc(C(F)(F)F)c2)[C@H](O)C[C@@H]1O [Travoprost] | 0 | – |
| CC[C@]12CCCN3CCc4c(n(c5ccccc45)[C@@](O)(C(=O)OC)C1)[C@@H]32 [Vincamine] | 13.7 | – |
| C[N+]1(C)[C@@H]2C[C@@H](OC(=O)[C@H](CO)c3ccccc3)C[C@H]1[C@@H]1O[C@@H]12 [Methscopolamine] | 0 | – |
| CC(C(=O)O)c1ccc(-c2ccccc2)c(F)c1 (centres unmarked) [Flurbiprofen] | 2.76 | – |
| Cc1cc(N2CCN([C@@H]3CN[C@H](C(=O)N4CCSC4)C3)CC2)n(-c2ccccc2)n1 [Teneligliptin hydrobromide] | 6.56 | – |
| C=CC[C@@H]1/C=C(\C)C[C@H](C)C[C@H](OC)[C@H]2O[C@@](O)(C(=O)C(=O)N3CCCC[C@H]3C(=O)O[C@H](/C(C)=C/[C@@H]3CC[C@@H](O)[C@H](OC)C3)[C@H](C)[C@@H](O)CC1=O)[C@H](C)C[C@@H]2OC [Tacrolimus (FK506)] | 29.6 | – |
| CCCC(=O)OCOC(=O)C1=C(C)NC(C)=C(C(=O)OC)C1c1cccc(Cl)c1Cl (centres unmarked) [Clevidipine Butyrate] | 0 | – |
| Nc1ccncc1 [4-Aminopyridine] | – | 5.817 |
| N[C@@H](Cc1cc(I)c(Oc2cc(I)c(O)c(I)c2)c(I)c1)C(=O)O [L-Thyroxine] | – | 10.74 |
| CN1CCCC(n2nc(Cc3ccc(Cl)cc3)c3ccccc3c2=O)CC1 (centres unmarked) [Azelastine HCl] | 20.2 | – |
| COc1cc2c(cc1Cc1cccc(Cl)c1F)c(=O)c(C(=O)O)cn2[C@H](CO)C(C)C [Elvitegravir (GS-9137, JTK-303)] | 0 | – |
| C=CC(=O)N1CCC(Oc2cc3c(Nc4ccc(Cl)c(Cl)c4F)ncnc3cc2OC)CC1 [Poziotinib (HM781-36B)] | 0 | – |
| CC1=C(/C=C/C(C)=C/C=C/C(C)=C\C(=O)O)C(C)(C)CCC1 [Isotretinoin] | 0 | – |
| C#CCC(Cc1cnc2nc(N)nc(N)c2n1)c1ccc(C(=O)N[C@@H](CCC(=O)O)C(=O)O)cc1 (some centres unmarked) [Pralatrexate] | 13.2 | – |
| CC#C[C@]1(O)CC[C@H]2[C@@H]3CCC4=CC(=O)CCC4=C3[C@@H](c3ccc(N(C)C)cc3)C[C@@]21C [Mifepristone] | 8.31 | – |
| Cc1cn(-c2cc(NC(=O)c3ccc(C)c(Nc4nccc(-c5cccnc5)n4)c3)cc(C(F)(F)F)c2)cn1 [Nilotinib hydrochloride] | – | 3.764 |
| CCOC(=O)/C=C(C)/C=C/C=C(C)/C=C/c1c(C)cc(OC)c(C)c1C [Etretinate] | 24.9 | – |
| CN(Cc1cnc2nc(N)nc(N)c2n1)c1ccc(C(=O)N[C@@H](CCC(=O)O)C(=O)O)cc1 [Methotrexate disodium] | – | 0 |
| CCCCCN(C)CCC(O)(P(=O)(O)O)P(=O)(O)O [Ibandronate sodium] | 4.37 | – |
| CCCN(CCC)CCc1cccc2c1CC(=O)N2 [Ropinirole HCl] | 0 | – |
| Cc1cc(=O)n(-c2ccccc2)n1C [Antipyrine] | 8.75 | – |
| Cc1onc(-c2ccccc2)c1-c1ccc(S(N)(=O)=O)cc1 [Valdecoxib] | 9.12 | – |
| CS(=O)(=O)c1cccc(C[C@H](NC(=O)c2c(Cl)cc3c(c2Cl)CCN(C(=O)c2ccc4ccoc4c2)C3)C(=O)O)c1 [Lifitegrast] | 0 | – |

From paper doi:10.1101/2021.10.07.463234v2 (biorxiv, 2021)
